Residues, ends and D or L forms follow the SMILES beside them.
What was measured:
[1] = Effect of pH on solubility of OmpAPerSD and PG1; type: physicochemical; settings: chemically synthesized samples, pH 1 to 12, 15 minutes at room temperature, supernatant by BCA total protein; FIG. 6
Description: Stock solutions of chemically synthesized samples of OmpAPerSD and PG1 were made in 0.1N NaOH. The pH of each sample was adjusted by the addition of 0.2 M sodium phosphate buffer or 0.1N HCl. Finally, water was added to make the final volume of each sample the same and the samples were mixed by vortexing. After 15 minutes at room temperature all samples were centrifuged at 13,000×g in a micro-centrifuge. The supernatants were carefully separated from the insoluble precipitates and analyzed for protein by the BCA total protein method. Protein determinations were made using standard solutions of synthetic OmpAPerSD and PG1, respectively, in 0.1N NaOH. […] The difference in pH solubility of OmpAPerSD and PG1 peptides, with maximal difference at low pH, lends to their ready separation by centrifugation or filtration.

E. coli expression host = assay: Growth of E. coli host cells expressing the fusion proteins (shake flask studies); type: cell-based; settings: tryptophan induction
Description: Single colonies of E. coli containing pLH117 or pLH119 were grown in Rich Medium overnight at 30° C. at 250 rpm. A fresh culture was started the following day using 10% of the overnight growth diluted in Induction media and grown to an OD550 of 0.8. Induction media had no tryptophan (1×M9 salts, 0.2% casamino acids, 0.5% glucose, 1 mM MgCl2, and 100 ug/ml ampicillin). To facilitate induction, tryptophan was added for a final concentration of 100 μg/ml and flasks were incubated at 37° C. with shaking at 300 rpm. Samples were taken pre-induction and at 4, 8, and 12 hr post induction. Cell pellets were collected by centrifugation and analyzed for protein production.
Single colonies of E. coli containing pLH121 or pLH122 were grown in Rich Medium overnight at 30° C. at 250 rpm. A fresh culture was started the following day using 10% of the overnight growth in Induction medium and grown to an OD550 of 1.0 at 37°. To facilitate induction, tryptophan was added for a final concentration of 100 μg/ml. Samples were taken pre-induction and at 5 hr post induction. Cell pellets were collected by centrifugation and analyzed for protein production.

Molecule: CC[C@H](C)[C@H](NC(=O)[C@H](C)NC(=O)[C@@H](NC(=O)[C@H](C)NC(=O)[C@@H](NC(=O)[C@H](CCCCN)NC(=O)[C@H](CCCCN)NC(=O)[C@@H](N)CCSC)[C@@H](C)O)[C@@H](C)CC)C(=O)N[C@@H](C)C(=O)N[C@H](C(=O)N[C@@H](C)C(=O)N[C@@H](CC(C)C)C(=O)N[C@@H](C)C(=O)NCC(=O)N[C@@H](Cc1ccccc1)C(=O)N[C@@H](C)C(=O)N[C@H](C(=O)N[C@H](C(=O)N[C@@H](C)C(=O)N[C@@H](CCC(N)=O)C(=O)N[C@@H](C)C(=O)N[C@@H](CC(=O)O)C(=O)O)C(C)C)[C@@H](C)O)C(C)C [OmpAPerSD] (H-MKKTAIAIAVALAGFATVAQAD-OH; N-terminus and C-terminus assumed)
- solubility over a range of pH [1]: increases with increasing pH

Molecule: CC(C)C[C@H](NC(=O)[C@H](CCCCN)NC(=O)[C@H](CC(C)C)NC(=O)[C@H](CC(C)C)NC(=O)[C@H](CCCCN)NC(=O)[C@H](CCCCN)NC(=O)[C@H](CC(C)C)NC(=O)CNC(=O)[C@H](CCCCN)NC(=O)[C@H](CC(C)C)NC(=O)[C@H](CC(C)C)NC(=O)[C@H](CCCCN)NC(=O)[C@H](CCCCN)NC(=O)[C@H](CC(C)C)NC(=O)CNC(=O)[C@H](CCCCN)NC(=O)[C@@H]1CCCN1)C(=O)O [P16KGLG1] (H-PKGLKKLLKGLKKLLKL-OH; N-terminus and C-terminus assumed)
- solubility over a range of pH [1]: does not appear to be pH dependent

Molecule: OmpA targeting signal sequence-16KGLG1-6His: fusion protein of OmpA periplasmic targeting signal, 16KGLG1 and 6His tag, expressed from pLH119 (MKKTAIAIAVALAGFATVAQAKGLKKLLKGLKKLLKLHHHHHH; OmpA PerS-G1-6His fusion protein)
- growth of cells expressing the fusion protein versus control cells containing only pLEX (E. coli expression host): grew at similar rates as control cells

— patent US7579005B2, “Process for recombinant expression and purification of antimicrobial peptides using periplasmic targeting signals as precipitable hydrophobic tags” (E. I. du Pont de Nemours and Company, priority 2005, dated 2009)
